Data taken from patent US20210382058A1, “PATIENT SELECTION FOR TREATMENT OF MYC POSITIVE CANCERS WITH INDENOISOQUINOLINES” (Purdue Research Foundation, priority 2020, published 2021).
Like-named read-outs stand apart in the source and are kept apart here.

Columns and labels:
[1] = molecular target: T1, human topoisomerase I (Homo sapiens, UniProt P11387); details: relative topoisomerase I inhibition levels, previously determined, six levels (0 - 5, +++++ = 5); cited from earlier work
T1 sequence (P11387 1-765): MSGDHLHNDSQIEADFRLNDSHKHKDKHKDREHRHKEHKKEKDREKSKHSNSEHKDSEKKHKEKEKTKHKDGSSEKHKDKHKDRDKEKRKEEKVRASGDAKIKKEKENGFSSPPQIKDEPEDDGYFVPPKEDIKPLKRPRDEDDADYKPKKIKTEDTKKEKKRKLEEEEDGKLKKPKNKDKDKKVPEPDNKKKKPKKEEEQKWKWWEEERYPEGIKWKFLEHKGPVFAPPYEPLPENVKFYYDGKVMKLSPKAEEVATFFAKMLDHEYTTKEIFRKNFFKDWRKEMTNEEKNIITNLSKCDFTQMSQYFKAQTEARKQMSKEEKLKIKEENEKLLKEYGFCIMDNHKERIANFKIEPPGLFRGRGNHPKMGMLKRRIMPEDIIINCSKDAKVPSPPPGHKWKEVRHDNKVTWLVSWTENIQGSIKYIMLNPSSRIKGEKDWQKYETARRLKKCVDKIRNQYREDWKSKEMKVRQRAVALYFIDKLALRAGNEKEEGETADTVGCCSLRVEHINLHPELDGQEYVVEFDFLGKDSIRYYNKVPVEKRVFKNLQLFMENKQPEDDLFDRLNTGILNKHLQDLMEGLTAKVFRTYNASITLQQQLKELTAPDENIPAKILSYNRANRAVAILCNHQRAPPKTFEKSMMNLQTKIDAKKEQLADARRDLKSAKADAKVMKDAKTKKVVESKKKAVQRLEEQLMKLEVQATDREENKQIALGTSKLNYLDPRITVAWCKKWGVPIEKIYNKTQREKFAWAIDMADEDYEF

[2] = tested on: MYC protein expression in MCF-7 breast cancer cells; assay: Western blotting of MYC protein level in MCF-7 cells; type: cell-based, human; details: Homo sapiens, MCF7; western blotting, MCF-7 cells, 0.5, 1, 2, and 4 μM, 24 hours; read-out: MYC Inhibition
In short: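 MCF-7 cells were exposed to compounds at 0.5, 1, 2 and 4 μM for 24 hours at 37° C. MYC was detected by immunoblot with ECL, using rabbit anti-MYC (1:1000) and anti-GAPDH (1:2000) as loading control.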

[3] = tested on: NCI-60 cancer cell lines; assay: NCI-60 cancer cell line drug screen (GI50, MGM); type: cell-based, human; details: Homo sapiens; for GI50: read-out: Antiproliferative Activities [GI50 (μM)]
Procedure: Cancer cells were incubated with the test compounds at five concentrations ranging from 100 μM to 10 nM for 48 h. […] The approximate average of GI50 values across the entire panel of NCI-60 cancer cell lines for each compound was recorded as the MGM value.

CNCCCn1c2c(c3ccc(Cl)cc3c1=O)C(=O)c1cc(OC)cnc1-2 [Compound 3]
Top1 Inhibiton [1]: ++ (medium inhibition, ++, MYC expression inhibited at 2.0 μM, or no clear dose-dependent MYC inhibition)
minimal effective concentration [2]: 0.5 to 1 µM
GI50 ([3]; 786-0, Renal Cancer, 786-0): 0.32 µM
GI50 ([3]; A498, Renal Cancer, A498): 0.53 µM
GI50 ([3]; A549, Non-Small Cell Lung Cancer, A549/ATCC): 0.45 µM
GI50 ([3]; ACHN, Renal Cancer, ACHN): 0.22 µM
GI50 ([3]; BT-549, Breast Cancer, BT-549): 0.65 µM
GI50 ([3]; CAKI-1, Renal Cancer, CAKI-1): 0.06 µM
GI50 ([3]; CCRF-CEM, Leukemia, CCRF-CEM): 0.06 µM
GI50 ([3]; COLO 205, Colon Cancer, COLO 205): 0.5 µM
GI50 ([3]; DU-145, Prostate Cancer, DU-145): 0.33 µM
GI50 ([3]; EKVX, Non-Small Cell Lung Cancer, EKVX): 1.2 µM
GI50 ([3]; HCC 2998, Colon Cancer, HCC-2998): 1.41 µM
GI50 ([3]; HCT-15, Colon Cancer, HCT-15): 1.11 µM
GI50 ([3]; HCT-116, Colon Cancer, HCT-116): 0.55 µM
GI50 ([3]; HL-60, Leukemia, HL-60(TB)): 0.6 µM
GI50 ([3]; HOP-62, Non-Small Cell Lung Cancer, HOP-62): 0.22 µM
GI50 ([3]; HOP-92, Non-Small Cell Lung Cancer, HOP-92): 1.19 µM
GI50 ([3]; HT-29, Colon Cancer, HT29): 1.08 µM
GI50 ([3]; Hs-578T, Breast Cancer, HS 578T): 1.84 µM
GI50 ([3]; IGROV-1, Ovarian Cancer, IGROV1): 1.14 µM
GI50 ([3]; K562, Leukemia, K-562): 1.14 µM
GI50 ([3]; KM12, Colon Cancer, KM12): 1.1 µM
GI50 ([3]; LOX IMVI, Melanoma, LOX IMVI): 0.16 µM
GI50 ([3]; Leukemia, SR): 0.14 µM
GI50 ([3]; MCF7, Breast Cancer, MCF7): 0.05 µM
GI50 ([3]; MDA-MB-231, Breast Cancer, MDA-MB-231/ATCC): 1.62 µM
GI50 ([3]; MDA-MB-435, Melanoma, MDA-MB-435): 1.07 µM
GI50 ([3]; MDA-MB-468, Breast Cancer, MDA-MB-468): 1.28 µM
GI50 ([3]; MOLT-4, Leukemia, MOLT-4): 0.04 µM
GI50 ([3]; Malme-3M, Melanoma, MALME-3M): 1.48 µM
GI50 ([3]; Melanoma, M14): 0.57 µM
GI50 ([3]; NCI-H23, Non-Small Cell Lung Cancer, NCI-H23): 0.92 µM
GI50 ([3]; NCI-H226, Non-Small Cell Lung Cancer, NCI-H226): 1.35 µM
GI50 ([3]; NCI-H322M, Non-Small Cell Lung Cancer, NCI-H322M): 1.28 µM
GI50 ([3]; NCI-H460, Non-Small Cell Lung Cancer, NCI-H460): 0.05 µM
GI50 ([3]; NCI-H522, Non-Small Cell Lung Cancer, NCI-H522): 0.37 µM
GI50 ([3]; OVCAR-3, Ovarian Cancer, OVCAR-3): 1.41 µM
GI50 ([3]; OVCAR-4, Ovarian Cancer, OVCAR-4): 1.27 µM
GI50 ([3]; OVCAR-5, Ovarian Cancer, OVCAR-5): 1.69 µM
GI50 ([3]; OVCAR-8, Ovarian Cancer, OVCAR-8): 1.18 µM
GI50 ([3]; Ovarian Cancer, NCl/ADR-RES): 0.54 µM
GI50 ([3]; Prostate Cancer, PC-3): 1.02 µM
GI50 ([3]; RPMI-8226, Leukemia, RPMI-8226): 1.47 µM
GI50 ([3]; RXF 393, Renal Cancer, RXF 393): 1.3 µM
GI50 ([3]; Renal Cancer, U0-31): 1.08 µM
GI50 ([3]; SF-268, CNS Cancer, SF-268): 0.4 µM
GI50 ([3]; SF-295, CNS Cancer, SF-295): 0.13 µM
GI50 ([3]; SF-539, CNS Cancer, SF-539): 0.73 µM
GI50 ([3]; SK-MEL-2, Melanoma, SK-MEL-2): 13.2 µM
GI50 ([3]; SK-MEL-5, Melanoma, SK-MEL-5): 1.12 µM
GI50 ([3]; SK-MEL-28, Melanoma, SK-MEL-28): 1.62 µM
GI50 ([3]; SK-OV-3, Ovarian Cancer, SK-OV-3): 0.66 µM
GI50 ([3]; SN12C, Renal Cancer, SN12C): 1.18 µM
GI50 ([3]; SNB-19, CNS Cancer, SNB-19): 0.61 µM
GI50 ([3]; SNB-75, CNS Cancer, SNB-75): 0.26 µM
GI50 ([3]; SW-620, Colon Cancer, SW-620): 0.08 µM
GI50 ([3]; T47D, Breast Cancer, T-47D): 1.12 µM
GI50 ([3]; U-251, CNS Cancer, U251): 0.3 µM
GI50 ([3]; UACC-62, Melanoma, UACC-62): 0.57 µM
GI50 ([3]; UACC-257, Melanoma, UACC-257): 2.24 µM
mean GI50 across NCI-60 panel (MGM) ([3]; average of GI50 values across the entire panel of NCI-60 cancer cell lines): 600 nM
